Measured values: ChEMBL document CHEMBL3352227, “Synthesis, antimycobacterial and antibacterial evaluation of l-[(1R, 2S)-2-fluorocyclopropyl]fluoroquinolone derivatives containing an oxime functional moiety” (Eur J Med Chem, 2014)
Values after ≈ are worked out from the molar mass of the structure shown.

Legend:
Type in all cases: functional
Escherichia coli [1] = assay: Antibacterial activity against extended-spectrum beta-lactamase producing Escherichia coli 12-15 after 18 to 24 hrs by standard twofold serial dilution method
[2] = test system: Mycobacterium tuberculosis; assay: Antimycobacterial activity against Mycobacterium tuberculosis H37Rv ATCC 27294 by MABA method
Escherichia coli [3] = assay: Antibacterial activity against extended-spectrum beta-lactamase producing Escherichia coli 12-2 after 18 to 24 hrs by standard twofold serial dilution method
Staphylococcus aureus [4] = assay: Antibacterial activity against methicillin-sensitive Staphylococcus aureus 12-5 after 18 to 24 hrs by standard twofold serial dilution method
Klebsiella pneumoniae [5] = assay: Antibacterial activity against Klebsiella pneumoniae 12-1 after 18 to 24 hrs by standard twofold serial dilution method
Escherichia coli [6] = assay: Antibacterial activity against Escherichia coli ATCC 25922 after 18 to 24 hrs by standard twofold serial dilution method
Klebsiella pneumoniae [7] = assay: Antibacterial activity against extended-spectrum beta-lactamase producin Klebsiella pneumoniae 12-3 after 18 to 24 hrs by standard twofold serial dilution method
Klebsiella pneumoniae [8] = assay: Antibacterial activity against Klebsiella pneumoniae 12-4 after 18 to 24 hrs by standard twofold serial dilution method
Streptococcus pneumoniae [9] = assay: Antibacterial activity against Streptococcus pneumoniae 12-18 after 18 to 24 hrs by standard twofold serial dilution method
Pseudomonas aeruginosa [10] = assay: Antibacterial activity against Pseudomonas aeruginosa 12-14 after 18 to 24 hrs by standard twofold serial dilution method
Staphylococcus aureus [11] = assay: Antibacterial activity against Staphylococcus aureus ATCC 25923 after 18 to 24 hrs by standard twofold serial dilution method
Streptococcus pneumoniae [12] = assay: Antibacterial activity against Streptococcus pneumoniae ATCC 49619 after 18 to 24 hrs by standard twofold serial dilution method
[13] = test system: Staphylococcus epidermidis; assay: Antibacterial activity against methicillin-sensitive Staphylococcus epidermidis 12-1 after 18 to 24 hrs by standard twofold serial dilution method
[14] = test system: Staphylococcus epidermidis; assay: Antibacterial activity against methicillin-sensitive Staphylococcus epidermidis 12-8 after 18 to 24 hrs by standard twofold serial dilution method
Staphylococcus aureus [15] = assay: Antibacterial activity against methicillin-resistant Staphylococcus aureus 12-2 after 18 to 24 hrs by standard twofold serial dilution method
Escherichia coli [16] = assay: Antibacterial activity against extended-spectrum beta-lactamase producing Escherichia coli 12-14 after 18 to 24 hrs by standard twofold serial dilution method
Staphylococcus aureus [17] = assay: Antibacterial activity against methicillin-sensitive Staphylococcus aureus 12-4 after 18 to 24 hrs by standard twofold serial dilution method
Pseudomonas aeruginosa [18] = assay: Antibacterial activity against Pseudomonas aeruginosa 12-12 after 18 to 24 hrs by standard twofold serial dilution method
Escherichia coli [19] = assay: Antibacterial activity against Escherichia coli 12-1 after 18 to 24 hrs by standard twofold serial dilution method
Staphylococcus aureus [20] = assay: Antibacterial activity against methicillin-sensitive Staphylococcus aureus 12-1 after 18 to 24 hrs by standard twofold serial dilution method
Klebsiella pneumoniae [21] = assay: Antibacterial activity against extended-spectrum beta-lactamase producin Klebsiella pneumoniae 12-7 after 18 to 24 hrs by standard twofold serial dilution method
Klebsiella pneumoniae [22] = assay: Antibacterial activity against extended-spectrum beta-lactamase producin Klebsiella pneumoniae 12-4 after 18 to 24 hrs by standard twofold serial dilution method
[23] = test system: Staphylococcus epidermidis; assay: Antibacterial activity against methicillin-sensitive Staphylococcus epidermidis 12-6 after 18 to 24 hrs by standard twofold serial dilution method
Staphylococcus aureus [24] = assay: Antibacterial activity against methicillin-resistant Staphylococcus aureus 12-5 after 18 to 24 hrs by standard twofold serial dilution method
Staphylococcus aureus [25] = assay: Antibacterial activity against methicillin-resistant Staphylococcus aureus 12-4 after 18 to 24 hrs by standard twofold serial dilution method
Klebsiella pneumoniae [26] = assay: Antibacterial activity against Klebsiella pneumoniae 12-2 after 18 to 24 hrs by standard twofold serial dilution method
[27] = test system: Staphylococcus epidermidis; assay: Antibacterial activity against methicillin-sensitive Staphylococcus epidermidis 12-3 after 18 to 24 hrs by standard twofold serial dilution method
Klebsiella pneumoniae [28] = assay: Antibacterial activity against extended-spectrum beta-lactamase producin Klebsiella pneumoniae 12-14 after 18 to 24 hrs by standard twofold serial dilution method
[29] = test system: Staphylococcus epidermidis; assay: Antibacterial activity against methicillin-resistant Staphylococcus epidermidis 12-6 after 18 to 24 hrs by standard twofold serial dilution method
Staphylococcus aureus [30] = assay: Antibacterial activity against methicillin-sensitive Staphylococcus aureus 12-2 after 18 to 24 hrs by standard twofold serial dilution method
Escherichia coli [31] = assay: Antibacterial activity against extended-spectrum beta-lactamase producing Escherichia coli 12-3 after 18 to 24 hrs by standard twofold serial dilution method
[32] = test system: Staphylococcus epidermidis; assay: Antibacterial activity against methicillin-resistant Staphylococcus epidermidis 12-1 after 18 to 24 hrs by standard twofold serial dilution method

Row | Structure (SMILES) | MIC (Escherichia coli [1]) [µg/mL] | MIC [2] [µg/mL] | MIC (Escherichia coli [3]) [µg/mL] | MIC (Staphylococcus aureus [4]) [µg/mL] | MIC (Klebsiella pneumoniae [5]) [µg/mL] | MIC (Escherichia coli [6]) [µg/mL] | MIC (Klebsiella pneumoniae [7]) [µg/mL] | MIC (Klebsiella pneumoniae [8]) [µg/mL] | MIC (Streptococcus pneumoniae [9]) [µg/mL] | MIC (Pseudomonas aeruginosa [10]) [µg/mL] | MIC (Staphylococcus aureus [11]) [µg/mL] | MIC (Streptococcus pneumoniae [12]) [µg/mL] | MIC [13] [µg/mL] | MIC [14] [µg/mL] | MIC (Staphylococcus aureus [15]) [µg/mL] | MIC (Escherichia coli [16]) [µg/mL] | MIC (Staphylococcus aureus [17]) [µg/mL] | MIC (Pseudomonas aeruginosa [18]) [µg/mL] | MIC (Escherichia coli [19]) [µg/mL] | MIC (Staphylococcus aureus [20]) [µg/mL] | also measured
1 | CCO/N=C1/CN(c2nc3c(cc2F)c(=O)c(C(=O)O)cn3[C@@H]2C[C@@H]2F)CC1CN (stereo partly specified) | 128 (≈ 304 µM) | 0.5 (≈ 1.19 µM) | 64 (≈ 152 µM) | 0.015 (≈ 0.0356 µM) | 0.03 (≈ 0.0712 µM) | < 0.008 | 16 (≈ 38 µM) | 0.125 (≈ 0.297 µM) | 0.06 (≈ 0.142 µM) | 2 (≈ 4.75 µM) | < 0.008 | 0.03 (≈ 0.0712 µM) | < 0.008 | 0.25 (≈ 0.593 µM) | 4 (≈ 9.49 µM) | 16 (≈ 38 µM) | 0.015 (≈ 0.0356 µM) | 0.125 (≈ 0.297 µM) | 0.06 (≈ 0.142 µM) | 0.015 (≈ 0.0356 µM) | MIC (Klebsiella pneumoniae [21]): 0.125 µg/mL (≈ 0.297 µM); MIC (Klebsiella pneumoniae [22]): 8 µg/mL (≈ 19 µM); MIC [23]: 0.015 µg/mL (≈ 0.0356 µM); MIC (Staphylococcus aureus [24]): 4 µg/mL (≈ 9.49 µM); MIC (Staphylococcus aureus [25]): 4 µg/mL (≈ 9.49 µM); MIC (Klebsiella pneumoniae [26]): 0.06 µg/mL (≈ 0.142 µM); MIC [27]: 0.03 µg/mL (≈ 0.0712 µM); MIC (Klebsiella pneumoniae [28]): 32 µg/mL (≈ 75.9 µM); MIC [29]: 4 µg/mL (≈ 9.49 µM); MIC (Staphylococcus aureus [30]): 0.015 µg/mL (≈ 0.0356 µM); MIC (Escherichia coli [31]): 16 µg/mL (≈ 38 µM); MIC [32]: 1 µg/mL (≈ 2.37 µM)
2 | CCO/N=C1/CN(c2nc3c(cc2F)c(=O)c(C(=O)O)cn3[C@@H]2C[C@@H]2F)[C@@H]1CN | > 128 | 4 (≈ 9.82 µM) | > 128 | 0.5 (≈ 1.23 µM) | 1 (≈ 2.45 µM) | 0.5 (≈ 1.23 µM) | > 128 | 1 (≈ 2.45 µM) | 8 (≈ 19.6 µM) | 128 (≈ 314 µM) | 0.25 (≈ 0.614 µM) | 2 (≈ 4.91 µM) | 0.5 (≈ 1.23 µM) | 32 (≈ 78.6 µM) | > 128 | > 128 | 0.25 (≈ 0.614 µM) | 4 (≈ 9.82 µM) | 2 (≈ 4.91 µM) | 0.5 (≈ 1.23 µM) | MIC (Klebsiella pneumoniae [21]): 8 µg/mL (≈ 19.6 µM); MIC (Klebsiella pneumoniae [22]): 32 µg/mL (≈ 78.6 µM); MIC [23]: 0.5 µg/mL (≈ 1.23 µM); MIC (Staphylococcus aureus [24]): > 128 µg/mL; MIC (Staphylococcus aureus [25]): > 128 µg/mL; MIC (Klebsiella pneumoniae [26]): 1 µg/mL (≈ 2.45 µM); MIC [27]: 2 µg/mL (≈ 4.91 µM); MIC (Klebsiella pneumoniae [28]): > 128 µg/mL; MIC [29]: 32 µg/mL (≈ 78.6 µM); MIC (Staphylococcus aureus [30]): 0.5 µg/mL (≈ 1.23 µM); MIC (Escherichia coli [31]): 32 µg/mL (≈ 78.6 µM); MIC [32]: 64 µg/mL (≈ 157 µM)
3 | CCO/N=C1/CN(c2cc3c(cc2F)c(=O)c(C(=O)O)cn3[C@@H]2C[C@@H]2F)[C@H]1CN | 128 (≈ 315 µM) | 2 (≈ 4.92 µM) | 32 (≈ 78.7 µM) | 0.125 (≈ 0.308 µM) | 0.06 (≈ 0.148 µM) | 0.03 (≈ 0.0738 µM) | 32 (≈ 78.7 µM) | 0.06 (≈ 0.148 µM) | 1 (≈ 2.46 µM) | 32 (≈ 78.7 µM) | 0.03 (≈ 0.0738 µM) | 0.06 (≈ 0.148 µM) | 0.125 (≈ 0.308 µM) | 2 (≈ 4.92 µM) | 16 (≈ 39.4 µM) | 16 (≈ 39.4 µM) | 0.06 (≈ 0.148 µM) | 0.5 (≈ 1.23 µM) | 0.125 (≈ 0.308 µM) | 0.125 (≈ 0.308 µM) | MIC (Klebsiella pneumoniae [21]): 0.5 µg/mL (≈ 1.23 µM); MIC (Klebsiella pneumoniae [22]): 8 µg/mL (≈ 19.7 µM); MIC [23]: 0.125 µg/mL (≈ 0.308 µM); MIC (Staphylococcus aureus [24]): 16 µg/mL (≈ 39.4 µM); MIC (Staphylococcus aureus [25]): 32 µg/mL (≈ 78.7 µM); MIC (Klebsiella pneumoniae [26]): 0.06 µg/mL (≈ 0.148 µM); MIC [27]: 0.5 µg/mL (≈ 1.23 µM); MIC (Klebsiella pneumoniae [28]): 32 µg/mL (≈ 78.7 µM); MIC [29]: 8 µg/mL (≈ 19.7 µM); MIC (Staphylococcus aureus [30]): 0.06 µg/mL (≈ 0.148 µM); MIC (Escherichia coli [31]): 8 µg/mL (≈ 19.7 µM); MIC [32]: 4 µg/mL (≈ 9.84 µM)
